From PubChem BioAssay (NCI)
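How tested: cells in 96-well plates exposed to compound for 48 hours at five concentrations. Here, GI50 denotes the concentration required for 50% inhibition of growth. TGI denotes the concentration required for complete inhibition of growth.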

How the values were obtained:
Test in all cases: NCI tumour cell line growth inhibition, 48 h
SR leukemia = test system: SR leukemia
K-562 leukemia = test system: K-562 leukemia
SK-MEL-5 melanoma = test system: SK-MEL-5 melanoma
HL-60(TB) leukemia = test system: HL-60(TB) leukemia
A549 NSCLC = test system: A549 NSCLC
NCI-H23 lung = test system: NCI-H23 lung
U251 CNS = test system: U251 CNS
OVCAR-8 ovarian = test system: OVCAR-8 ovarian
M14 melanoma = test system: M14 melanoma
SK-MEL-28 melanoma = test system: SK-MEL-28 melanoma
HOP-62 NSCLC = test system: HOP-62 NSCLC
ACHN renal = test system: ACHN renal
CCRF-CEM leukemia = test system: CCRF-CEM leukemia
BT-549 breast = test system: BT-549 breast
MDA-MB-435 = test system: MDA-MB-435
HT29 colon = test system: HT29 colon
SF-539 CNS = test system: SF-539 CNS
SF-268 CNS = test system: SF-268 CNS
786-0 renal = test system: 786-0 renal
IGROV1 ovarian = test system: IGROV1 ovarian
UO-31 renal = test system: UO-31 renal
DU-145 prostate = test system: DU-145 prostate
SNB-19 CNS = test system: SNB-19 CNS
MOLT-4 leukemia = test system: MOLT-4 leukemia
RXF 393 renal = test system: RXF 393 renal
RPMI-8226 leukemia = test system: RPMI-8226 leukemia
OVCAR-4 ovarian = test system: OVCAR-4 ovarian
KM12 colon = test system: KM12 colon
EKVX NSCLC = test system: EKVX NSCLC
MDA-MB-231 breast = test system: MDA-MB-231 breast
HCT-15 colon = test system: HCT-15 colon
HS 578T breast = test system: HS 578T breast
NCI/ADR-RES ovarian = test system: NCI/ADR-RES ovarian
HOP-92 NSCLC = test system: HOP-92 NSCLC
NCI-H460 lung = test system: NCI-H460 lung
SF-295 CNS = test system: SF-295 CNS
SNB-75 CNS = test system: SNB-75 CNS
SW-620 colon = test system: SW-620 colon
OVCAR-3 ovarian = test system: OVCAR-3 ovarian
MCF7 breast = test system: MCF7 breast
A498 renal = test system: A498 renal
SK-OV-3 ovarian = test system: SK-OV-3 ovarian
UACC-257 melanoma = test system: UACC-257 melanoma
UACC-62 melanoma = test system: UACC-62 melanoma
TK-10 renal = test system: TK-10 renal
OVCAR-5 ovarian = test system: OVCAR-5 ovarian
NCI-H226 lung = test system: NCI-H226 lung
HCC-2998 colon = test system: HCC-2998 colon
SN12C renal = test system: SN12C renal
PC-3 prostate = test system: PC-3 prostate
HCT-116 colon = test system: HCT-116 colon
NCI-H522 lung = test system: NCI-H522 lung
COLO 205 colon = test system: COLO 205 colon
MALME-3M melanoma = test system: MALME-3M melanoma
LOX IMVI melanoma = test system: LOX IMVI melanoma

Compound: CC[C@H](C)[C@H](NC(=O)c1ncccn1)C(=O)N(C)[C@H](C[C@@H](OC(C)=O)c1nc(C(=O)N[C@@H](Cc2ccccc2)C[C@H](C)C(=O)OC)cs1)C(C)C
- GI50 (SR leukemia): 0.213 µM
- TGI (SR leukemia): > 25 µM
- GI50 (K-562 leukemia): 0.935 µM
- TGI (K-562 leukemia): > 25 µM
- GI50 (SK-MEL-5 melanoma): 0.848 µM
- TGI (SK-MEL-5 melanoma): 4.77 µM
- GI50 (HL-60(TB) leukemia): 0.588 µM
- TGI (HL-60(TB) leukemia): 1.26 µM
- GI50 (A549 NSCLC): 6.23 µM
- TGI (A549 NSCLC): > 25 µM
- GI50 (NCI-H23 lung): 5.4 µM
- TGI (NCI-H23 lung): > 25 µM
- GI50 (U251 CNS): 2.39 µM
- TGI (U251 CNS): > 25 µM
- GI50 (OVCAR-8 ovarian): 2.25 µM
- TGI (OVCAR-8 ovarian): > 25 µM
- GI50 (M14 melanoma): 1.13 µM
- TGI (M14 melanoma): > 25 µM
- GI50 (SK-MEL-28 melanoma): 3.51 µM
- TGI (SK-MEL-28 melanoma): > 25 µM
- GI50 (HOP-62 NSCLC): 1.73 µM
- TGI (HOP-62 NSCLC): > 25 µM
- GI50 (ACHN renal): 4.07 µM
- TGI (ACHN renal): > 25 µM
- GI50 (CCRF-CEM leukemia): 0.853 µM
- TGI (CCRF-CEM leukemia): 7.19 µM
- GI50 (BT-549 breast): 1.47 µM
- TGI (BT-549 breast): 11.7 µM
- GI50 (MDA-MB-435): 0.393 µM
- TGI (MDA-MB-435): 1.08 µM
- GI50 (HT29 colon): 0.893 µM
- TGI (HT29 colon): > 25 µM
- GI50 (SF-539 CNS): 2.53 µM
- TGI (SF-539 CNS): 11.9 µM
- GI50 (SF-268 CNS): 2.21 µM
- TGI (SF-268 CNS): > 25 µM
- GI50 (786-0 renal): 1.72 µM
- TGI (786-0 renal): > 25 µM
- GI50 (IGROV1 ovarian): 1.38 µM
- TGI (IGROV1 ovarian): > 25 µM
- GI50 (UO-31 renal): 6.01 µM
- TGI (UO-31 renal): > 25 µM
- GI50 (DU-145 prostate): 1.78 µM
- TGI (DU-145 prostate): > 25 µM
- GI50 (SNB-19 CNS): 2.32 µM
- TGI (SNB-19 CNS): > 25 µM
- GI50 (MOLT-4 leukemia): 2.39 µM
- TGI (MOLT-4 leukemia): > 25 µM
- GI50 (RXF 393 renal): 0.809 µM
- TGI (RXF 393 renal): 20.6 µM
- GI50 (RPMI-8226 leukemia): 0.793 µM
- TGI (RPMI-8226 leukemia): 3.98 µM
- GI50 (OVCAR-4 ovarian): 4.42 µM
- TGI (OVCAR-4 ovarian): > 25 µM
- GI50 (KM12 colon): 1.04 µM
- TGI (KM12 colon): > 25 µM
- GI50 (EKVX NSCLC): 4.62 µM
- TGI (EKVX NSCLC): > 25 µM
- GI50 (MDA-MB-231 breast): 1.4 µM
- TGI (MDA-MB-231 breast): 10.9 µM
- GI50 (HCT-15 colon): 1.39 µM
- TGI (HCT-15 colon): > 25 µM
- GI50 (HS 578T breast): 1.25 µM
- TGI (HS 578T breast): > 25 µM
- GI50 (NCI/ADR-RES ovarian): 11.7 µM
- TGI (NCI/ADR-RES ovarian): > 25 µM
- GI50 (HOP-92 NSCLC): 4.36 µM
- TGI (HOP-92 NSCLC): > 25 µM
- GI50 (NCI-H460 lung): 0.925 µM
- TGI (NCI-H460 lung): > 25 µM
- GI50 (SF-295 CNS): 2.11 µM
- TGI (SF-295 CNS): 16.7 µM
- GI50 (SNB-75 CNS): 0.768 µM
- TGI (SNB-75 CNS): > 25 µM
- GI50 (SW-620 colon): 0.896 µM
- TGI (SW-620 colon): > 25 µM
- GI50 (OVCAR-3 ovarian): 0.796 µM
- TGI (OVCAR-3 ovarian): > 25 µM
- GI50 (MCF7 breast): 0.924 µM
- TGI (MCF7 breast): > 25 µM
- GI50 (A498 renal): 2.7 µM
- TGI (A498 renal): 17.6 µM
- GI50 (SK-OV-3 ovarian): 5.51 µM
- TGI (SK-OV-3 ovarian): > 25 µM
- GI50 (UACC-257 melanoma): 2.38 µM
- TGI (UACC-257 melanoma): > 25 µM
- GI50 (UACC-62 melanoma): 0.848 µM
- TGI (UACC-62 melanoma): > 25 µM
- GI50 (TK-10 renal): 16.6 µM
- TGI (TK-10 renal): > 25 µM
- GI50 (OVCAR-5 ovarian): 5.07 µM
- TGI (OVCAR-5 ovarian): > 25 µM
- GI50 (NCI-H226 lung): 5.45 µM
- TGI (NCI-H226 lung): > 25 µM
- GI50 (HCC-2998 colon): 6.48 µM
- TGI (HCC-2998 colon): > 25 µM
- GI50 (SN12C renal): 2.81 µM
- TGI (SN12C renal): > 25 µM
- GI50 (PC-3 prostate): 1.46 µM
- TGI (PC-3 prostate): > 25 µM
- GI50 (HCT-116 colon): 0.929 µM
- TGI (HCT-116 colon): > 25 µM
- GI50 (NCI-H522 lung): 1.01 µM
- TGI (NCI-H522 lung): 7.37 µM
- GI50 (COLO 205 colon): 1.01 µM
- TGI (COLO 205 colon): 4.97 µM
- GI50 (MALME-3M melanoma): 1.29 µM
- TGI (MALME-3M melanoma): > 25 µM
- GI50 (LOX IMVI melanoma): 1.46 µM
- TGI (LOX IMVI melanoma): > 25 µM
